In ChEMBL document CHEMBL1201862, “PubChem BioAssay data set” (2004):
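48-hour exposure; five concentrations; linearly interpolated endpoints. The concentration for 50% growth inhibition is given as GI50.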 Active and inactive are the calls of the source. Rule as the data show it: active = GI50 up to about 1.1 µM and inactive = higher.

Tests used:
Assay in all cases: NCI-60 cell line screen, 48 h
A549 = system: A549
ACHN = system: ACHN
CAKI-1 = system: CAKI-1
CCRF-CEM = system: CCRF-CEM
COLO 205 = system: COLO 205
DU-145 = system: DU-145
HCC 2998 = system: HCC 2998
HL-60 = system: HL-60
HOP-92 = system: HOP-92
Hs-578T = system: Hs-578T
M14 = system: M14
MCF7 = system: MCF7
MDA-MB-435 = system: MDA-MB-435
NCI-H23 = system: NCI-H23
OVCAR-3 = system: OVCAR-3
OVCAR-4 = system: OVCAR-4
SF-268 = system: SF-268
SK-MEL-2 = system: SK-MEL-2
SNB-75 = system: SNB-75
SW-620 = system: SW-620

SMILES | GI50 (A549) | GI50 (ACHN) | GI50 (CAKI-1) | GI50 (CCRF-CEM) | GI50 (COLO 205) | GI50 (DU-145) | GI50 (HCC 2998) | GI50 (HL-60) | GI50 (HOP-92) | GI50 (Hs-578T) | GI50 (M14) | GI50 (MCF7) | GI50 (MDA-MB-435) | GI50 (NCI-H23) | GI50 (OVCAR-3) | GI50 (OVCAR-4) | GI50 (SF-268) | GI50 (SK-MEL-2) | GI50 (SNB-75) | GI50 (SW-620)
Cc1ncc(CO)c(/C=N/CCCCCC/N=C/c2c(CO)cnc(C)c2[O-])c1[O-].[Mg+2] | > 100 µM (inactive) | > 100 µM (inactive) | > 100 µM (inactive) | 36.2 µM (inactive) | > 100 µM (inactive) | > 100 µM (inactive) | > 100 µM (inactive) | > 100 µM (inactive) | > 44.6 µM (inactive) | > 100 µM (inactive) | > 100 µM (inactive) | > 60.1 µM (inactive) | > 100 µM (inactive) | > 100 µM (inactive) | > 100 µM (inactive) | > 100 µM (inactive) | > 100 µM (inactive) | > 100 µM (inactive) | 99.5 µM (inactive) | > 100 µM (inactive)
Nc1ccn(C2CCC(CO)O2)c(=O)n1 (stereo not given) | > 100 µM (inactive) | 785 µM (inactive) | > 100 µM (inactive) | 46.5 µM (inactive) | > 100 µM (inactive) | 719 µM (inactive) | > 100 µM (inactive) | 698 µM (inactive) | > 100 µM (inactive) | > 1000 µM (inactive) | > 1000 µM (inactive) | 99.8 µM (inactive) | > 1000 µM (inactive) | > 100 µM (inactive) | > 100 µM (inactive) | > 83 µM (inactive) | > 62.8 µM (inactive) | > 100 µM (inactive) | > 100 µM (inactive) | > 94.8 µM (inactive)
C[C@]12CC[C@H](O)C[C@@H]1CC[C@@H]1[C@@H]2CC[C@]2(C)[C@@H](c3cc(C(F)(F)F)[nH]n3)CC[C@@H]12 | 4.8 µM (inactive) | 7.21 µM (inactive) | 13.2 µM (inactive) | 0.957 µM (active) | 4.13 µM (inactive) | 10.9 µM (inactive) | 15 µM (inactive) | 0.908 µM (active) | 2.74 µM (inactive) | > 35.6 µM (inactive) | 9.1 µM (inactive) | 5.75 µM (inactive) | 10.1 µM (inactive) | 7.11 µM (inactive) | 10.1 µM (inactive) | 6.64 µM (inactive) | > 33 µM (inactive) | 16.2 µM (inactive) | 11.6 µM (inactive) | 12.1 µM (inactive)
CN(C)CC1CCC/C(=C\c2ccc(OC(=O)/C=C/c3ccc(Cl)cc3)cc2)C1=O (stereo not given) | 8.49 µM (inactive) | 2.43 µM (inactive) | 2.62 µM (inactive) | 1.06 µM (active) | 0.78 µM (active) | 5.2 µM (inactive) | 5.43 µM (inactive) | 1.07 µM (active) | 1.57 µM (inactive) | 4.92 µM (inactive) | 6.1 µM (inactive) | 1.08 µM (active) | 5.28 µM (inactive) | 6.65 µM (inactive) | 4.97 µM (inactive) | 12.5 µM (inactive) | 4.09 µM (inactive) | 9.82 µM (inactive) | 8.93 µM (inactive) | 1.69 µM (inactive)
Cc1ccc(OCC2OC(n3cnc4nc(Cl)nc(Cl)c43)CC2Oc2ccc(C)cc2)cc1 (stereo not given) | 27.3 µM (inactive) | 3.05 µM (inactive) | 4.75 µM (inactive) | 2.99 µM (inactive) | 9.25 µM (inactive) | 12.9 µM (inactive) | 3.39 µM (inactive) | 0.402 µM (active) | 2.69 µM (inactive) | 11.9 µM (inactive) | 6.35 µM (inactive) | 5.61 µM (inactive) | 5.3 µM (inactive) | 7.71 µM (inactive) | 6.38 µM (inactive) | 15.7 µM (inactive) | 7.01 µM (inactive) | 4.98 µM (inactive) | 14.7 µM (inactive) | 3.76 µM (inactive)
CC(=O)NCC1OC2COC(c3ccccc3)OC2C(NC(=O)c2ccccc2)C1OC(=O)c1ccccc1 (stereo not given) | > 100 µM (inactive) | > 100 µM (inactive) | > 100 µM (inactive) | > 100 µM (inactive) | > 100 µM (inactive) | > 100 µM (inactive) | > 100 µM (inactive) | 85.5 µM (inactive) | > 100 µM (inactive) | > 100 µM (inactive) | > 100 µM (inactive) | > 100 µM (inactive) | > 100 µM (inactive) | > 100 µM (inactive) | > 100 µM (inactive) | > 100 µM (inactive) | > 100 µM (inactive) | > 100 µM (inactive) | > 100 µM (inactive) | > 100 µM (inactive)
CC1=NN(C(=O)CC(=O)Nc2ccc(C)cc2)C(=O)C1/N=N/c1ccc(C(=O)O)cc1 (stereo not given) | > 100 µM (inactive) | > 100 µM (inactive) | > 100 µM (inactive) | > 100 µM (inactive) | > 100 µM (inactive) | > 100 µM (inactive) | > 100 µM (inactive) | > 100 µM (inactive) | > 100 µM (inactive) | 85.7 µM (inactive) | > 100 µM (inactive) | > 100 µM (inactive) | > 100 µM (inactive) | > 100 µM (inactive) | > 100 µM (inactive) | > 100 µM (inactive) | > 100 µM (inactive) | > 100 µM (inactive) | > 100 µM (inactive) | > 100 µM (inactive)
